Results published in publication PMC12498190, “A Photocaged N‐Phosphonopiperidinone as a Selective Photo‐Cleavable DPP8/9 Inhibitor” (Chembiochem, 2025).

Columns and labels:
DPP9 [1] = molecular target: T1, DPP9 (Homo sapiens, UniProt Q86TI2); experiment: In vitro gel-based competitive ABPP in HEK293 cell lysates, 100 kDa band; set-up: endogenous in cells; host or cells: HEK293 (Cytion, Germany, 300192); details: HEK293 lysate, 10 µM competitor, 30 min; for Competition of ≡FP labeling (in words): 2 µM ≡FP
T1 sequence (Q86TI2 whole entry): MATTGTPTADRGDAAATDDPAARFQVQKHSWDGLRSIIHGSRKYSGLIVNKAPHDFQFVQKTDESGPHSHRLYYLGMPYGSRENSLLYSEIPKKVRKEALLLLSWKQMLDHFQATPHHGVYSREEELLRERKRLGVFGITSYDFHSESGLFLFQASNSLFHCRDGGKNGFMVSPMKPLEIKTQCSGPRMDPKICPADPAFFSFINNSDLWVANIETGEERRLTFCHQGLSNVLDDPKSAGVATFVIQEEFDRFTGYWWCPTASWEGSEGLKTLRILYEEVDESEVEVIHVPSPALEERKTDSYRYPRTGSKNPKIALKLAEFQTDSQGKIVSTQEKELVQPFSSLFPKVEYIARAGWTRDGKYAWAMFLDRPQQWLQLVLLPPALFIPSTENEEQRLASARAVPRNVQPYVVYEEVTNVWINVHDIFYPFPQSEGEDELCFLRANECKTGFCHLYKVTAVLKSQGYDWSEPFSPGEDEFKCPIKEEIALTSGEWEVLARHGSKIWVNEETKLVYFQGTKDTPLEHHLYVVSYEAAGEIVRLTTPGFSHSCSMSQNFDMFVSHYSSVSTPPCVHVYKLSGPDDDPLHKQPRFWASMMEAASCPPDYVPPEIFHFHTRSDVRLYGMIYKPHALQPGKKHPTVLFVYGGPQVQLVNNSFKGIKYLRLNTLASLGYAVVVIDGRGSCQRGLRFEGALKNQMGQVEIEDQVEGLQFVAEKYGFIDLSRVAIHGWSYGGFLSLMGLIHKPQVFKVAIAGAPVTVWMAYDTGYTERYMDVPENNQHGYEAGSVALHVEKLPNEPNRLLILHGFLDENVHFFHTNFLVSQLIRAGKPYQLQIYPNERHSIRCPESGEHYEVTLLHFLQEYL
Procedure: Therefore, HEK293 cell lysates were pre‐incubated with 10 µM 5 or DMSO vehicle control for 30 min, followed by a labeling reaction with 2 µM of the serine hydrolase‐specific ABP fluorophosphonate‐alkyne (≡FP) or 10 µM 2 (Figure 2B). […] Of note, this band has been previously assigned as DPP9 (DPP8 would migrate in the same range, but is only expressed at low levels in the used cell line and therefore cannot be visualized by this approach).^[ [36] ^, [37] ^] […] Again, this labeling was observed regardless of prior irradiation. Subsequently, the competitive labeling experiment was conducted by pre‐incubation with compound 5, with or without subsequent irradiation.
Figure 2 Competitive ABPP with photo‐cleavable inhibitor 5 in HEK293 cells. A) Schematic overview of a competitive ABPP experiment. A proteome is pre‐incubated with a competitor, followed by a labeling reaction with an activity‐based probe (ABP). In the case of a photocaged inhibitor, the active compound can be released via irradiation. Target proteins of the competitor cannot be bound by the ABP, resulting in an absence of the respective protein band in‐gel analysis. Created in BioRender. Najdzion, M. (2025) https://BioRender.com/84zn8cb B) Gel‐based competitive ABPP experiment in HEK293 cell lysates with the broadband serine hydrolase ABP ≡FP or the DPP8/9‐directed ABP 2 and the photocaged inhibitor 5, at the indicated concentrations, after or without prior irradiation with green light for 5 min. The corresponding pre‐incubation time for 5 was 30 min. C) Corresponding in situ competitive ABPP experiment in HEK293 cell culture, again with 10 µM 2 for 1 h. Labeling was competed by pre‐incubation with 20 µM 5 for 1 h, followed by an activation of the photocaged inhibitor by irradiation for 5 min with a green LED lamp, if applicable. D) Green light treatment has no cytotoxic effect. HEK293 cells were irradiated with a green LED lamp in the presence of 0.5% DMSO for 5 min (‘light’), and cell viability was measured after 24 h. […] Data was normalized to the non‐irradiated control (‘dark’). E) Green light treatment leads to the release of the active DPP8/9 inhibitor. HEK293 cells were incubated with compound 1 or 5 for 24 h. For both compounds, cell viability was measured under ‘dark’ (not irradiated) and ‘light’ (irradiated for 5 min with a green LED lamp after the addition of the inhibitor) conditions. […] Data was normalized to the non‐irradiated DMSO control.
For in vitro ABPP, cell lysates were generated from HEK293 cells grown on a 10 cm tissue dish. […] The cell lysates were cleared via centrifugation (30 min, 20,817 × g, 4 °C), and protein concentration was determined with a modified Bradford assay using Roti‐Nanoquant (Carl Roth, Germany). […]

DPP9 [2] = molecular target: T1, DPP9; experiment: Progress-curve kinetics of covalent DPP9 inhibition (kinact, KI); format: biochemical; set-up: purchased Proteros Biostructures GmbH, Germany; details: dark
Excerpt: As previously shown by us, 1 inhibits DPP8 and DPP9 via a covalent modification of the active site serine.^[ [31] ^] Therefore, we also measured the time dependence of this covalent modification of the target enzyme by recording progress curves for the inhibition of DPP8 and 9 and using them to calculate the corresponding binding affinity (KI), maximum enzyme inhibition rate (kinact) as well as the efficiency of covalent bond formation (kinact/KI) values for 5 after and without green light irradiation ( Figure S1 and Table S1, Supporting Information).
To calculate the reaction rate of covalent bond formation between DPP proteins and the inhibitor, kinact, KI, and kinact/KI were determined as previously described.^[ [49] ^, [50] ^] To this end, a dilution series of 5 was irradiated using a green LED lamp (λ = 520−530 nm; Eurolite, Germany) for 5 min and subsequently mixed with 250 µM GP‐AMC. The mixture was then added to 10 nM enzyme, and the resulting activity was measured for a maximum of 60 min at 30 °C. Fluorescence intensities were plotted against time and data were fitted to the following equation: [drawing 1] using Graph‐Pad Prism v10.4.1. The obtained pseudo first‐order rate constant was used to determine kinact and KI by fitting the plot of kobs against inhibitor concentration to the following equation: [drawing 2] . The efficiency of covalent bond formation (kinact/KI) was calculated by the ratio of kinact/KI. All measurements were performed in triplicate, and error bars represent standard errors of the fit.
Supplementary Figure 1. Kinetic analysis of DPP8 and DPP9 inhibition by compound 5. The pseudo-first order rate constant (kobs) was calculated from an exponential regression of progress curves and plotted against the concentration of compound 5. All measurement were performed in triplicate (n = 3 technical replicates), mean values are shown and error bars indicate the standard error of the mean (SEM). Inhibition assay was performed with DPP8 (A, B) and DPP9 (C, D) under ‘dark’ (A, C) and ‘light’ (B, D) conditions. […]

## CCCCCc1ccc(SCCP(=O)(OCC)N2CCC[C@H](NC(=O)OCC3=C4C(C)=CC(C)=[N+]4[B-](C)(C)n4c(C)cc(C)c43)C2=O)cc1 (stereo partly drawn) [Compound 5]
DPP9 [1]; green light 5 min, 100 kDa band assigned as DPP9
  Competition of ≡FP labeling (in words): labeling competition of one specific band
DPP9 [1]; without irradiation
  Competition of ≡FP labeling (in words): did not result in any competition
DPP9 [1]; 10 µM 2, green light 5 min
  Competition of DPP9 labeling by ABP 2 (in words): efficient DPP9 labeling competition
DPP9 [2]
  KI (inactivation): 32.2 µM
  kinact: 0.000464 s⁻¹
  kinact/KI: 14 M⁻¹ s⁻¹
